Article PMC10747822 (Pharmaceutics, 2023)
Where a SMILES comes first, the peptide text is derived from it. [ ]: non-standard residue; d: D form. The star is where a group is joined. NH(4-amidinobenzyl) = N=C(N)c1ccc(CN*)cc1

Legend:
[1] = mice; cited from earlier work
Method: The pharmacokinetics of Ac-[D-Leu]LLLRVK-amba was already determined after intravenous bolus injection. With a half-life of only 9 min, this route of administration only produced a short period of potentially effective concentrations. […] Therefore, we aimed at flattening the pharmacokinetic profile with alternate routes of administr ...

[2] = Bench-top stability in fresh mouse whole blood; assay type: in vitro ADME; conditions: minimally diluted, 1 µg/mL (1000 ng/mL), room temperature, sampled at 0, 1 and 2 h, duplicates of 20 µL, UPLC-MS/MS peak area ratio analyte/IS, read-out: calculated half-life in whole blood (converted)
Method: To investigate peptide stability, minimally diluted plasma or blood samples were generated through the addition of 10 µL of a spiking solution (50,000 ng/mL) to 490 µL of the pertinent biological matrix, resulting in a sample concentration of 1000 ng/mL. Samples (withdrawal of duplicates of 20 µL) were measured immediately after preparation and again after 1 and 2 h. Stability was evaluated via the comparison of peak area ratios of analyte and IS.
To determine which biological matrix is best suited for pharmacokinetic experiments in mice, we investigated the bench-top stability of Ac-[D-Leu]LLLRVK-amba in plasma and fresh whole blood at room temperature over a 2 h period (Figure 3). In plasma, anti-coagulated with Li-heparin, Ac-[D-Leu]LLLRVK-amba was very rapidly degraded.

[3] = Freeze-and-thaw stability in whole blood QC samples; assay type: in vitro ADME, human; conditions: for freeze-and-thaw stability, Accuracy [%]: one cycle
Method: Blood samples for calibration and QC purposes were generated through the addition of 25 µL of the pertinent spike solution to 20 µL of blank blood and the subsequent addition of 25 µL of IS solution. Calibration samples were produced at 10, 30, 100, 300, 1000, 3000, and 10,000 ng/mL, and QC samples were produced at concentrations of 10, 30, 3750, and 7500 ng/mL. For study sample processing, 20 µL of each sample was added to 25 µL of IS solution, and 25 µL of ACN/H2O 1/1 + 0.1% FA was added for volume compensation to ensure that sample preparation matches that of study blood samples. For stability reasons, each sample was immediately depleted from proteins by adding 150 µL ACN including 0.1% FA. Samples were processed individually and kept frozen until processing. Subsequently, samples were centrifuged at 13,200× g for 5 min. From the extracts, 10 µL was transferred to 400 µL of ACN/H2O 1/19 + 0.1% FA in wells of a 96-well collection plate (Waters, Milford, MA, USA).
The applicable recommendations for bioanalytical method validation of the FDA and EMA were applied to the validation of the assay. Accuracy was calculated as the percentage of the ratio of the mean of the determined concentrations and the nominal concentration. The acceptance limit is 100 ± 15%, with the exception of the LLOQ where it is 100 ± 20% Q. The assay precision was calculated as the coefficient of variation of the determined sample concentrations. It needs to be ≤15% in general and ≤20% at the LLOQ. Each validation run included blank and IS controls, seven calibration samples in duplicate determination, and four QC samples (LLOQ and low, mid, and high QC concentrations) in six-fold determination. Recovery of the whole blood extraction process was calculated from peak areas of QC samples divided by the peak areas obtained from blank blood spiked with the respective amount after processing. Assessment of matrix effects was performed by the ratio of peak areas of blank blood samples spiked after processing with the peak areas of UPLC solvent containing an identical amount of analyte. Stability of the analyte was investigated in freeze-and-thaw cycles separated by at least 24 h and at room temperature for testing bench-top stability.
Because an isotopically labeled analog of Ac-[D-Leu]LLLRVK-amba was used as IS, potential variations in (negligible) matrix effects can be efficiently balanced by the IS due to its identical physicochemical characteristics. As a consequence, whole blood from other species is appropriate for calibration and QC preparation. Therefore, whole blood from human donors was used for these purposes, which also helps to reduce animal sacrifice.

[4] = Stock solution stability; assay type: physicochemical; conditions: 2 weeks; solutions in ACN/H2O (1/1, v/v) + 0.1% FA in glass, kept at 4 °C
Method: Calibration and quality control (QC) spike solutions were prepared in ACN/H2O (1/1, v/v) + 0.1% FA in glass vials. These were produced from stock solution generated from accurately dissolved independent weighings into 2 mL volumetric flasks. Calibration solutions were prepared at concentrations of 8, 24, 80, 240, 800, […], and 8000 ng/mL. QC solutions were prepared at concentrations of 8, 24, 3000, and 6000 ng/mL. The IS spike solution was prepared accordingly at a concentration of 400 ng/mL. Solutions were kept at 4 °C.
Extraction via protein precipitation combined with UPLC-MS/MS quantification for Ac-[D-Leu]LLLRVK-amba complied with the FDA and EMA recommendations for accuracy, precision, linearity, matrix effects, and recovery. Within the calibrated range (10–10,000 ng/mL), correlation coefficients (r^2) of >0.99 were obtained using linear regression and 1/x^2 weighting (Table S3). Table 1 gives an overview of the intraday and interday accuracies and precision values during validation, which were well within the required limits. The observed carry-over after the highest calibration sample was 0.015% and within the required limits of less than 20% of the peak area of the LLOQ. Stock solution stability was established for 2 weeks, which was sufficient to cover sample analyses with an accuracy of 93.7% of the peak areas of the stored solutions compared to initial values.

half-life at 1000 ng/mL [2]: 1.39 h
freeze-and-thaw stability, accuracy ([3]; whole blood QC samples, one freeze-and-thaw cycle, range over QC levels, corresponding precision ≤14.0%, UPLC-MS/MS): 91.5 to 98.3%
deviation after further freeze-and-thaw cycles ([3]; whole blood, more than one freeze-and-thaw cycle, cycles separated by at least 24 h): > 15%
freeze-and-thaw stability, Accuracy [%] ([3]; whole blood, QC A, UPLC-MS/MS): 91.5%
freeze-and-thaw stability, Accuracy [%] ([3]; whole blood, QC B, UPLC-MS/MS): 91.6%
freeze-and-thaw stability, Accuracy [%] ([3]; whole blood, QC C, UPLC-MS/MS): 98.3%
stock solution stability, accuracy of peak areas of stored solutions compared to initial values [4]: 93.7%
Compound: CC(=O)N[C@H](CC(C)C)C(=O)N[C@@H](CC(C)C)C(=O)N[C@@H](CC(C)C)C(=O)N[C@@H](CC(C)C)C(=O)N[C@@H](CCCNC(=N)N)C(=O)N[C@H](C(=O)N[C@@H](CCCCN)C(=O)NCc1ccc(C(=N)N)cc1)C(C)C [Ac-[D-Leu]LLLRVK-amba] (Ac-[dL]LLLRVK-{NH(4-amidinobenzyl)})
half-life after intravenous bolus injection (previous study) [1]: 9 min
